Measured values as given in patent US20250041367A1, “BACTERIOPHAGES AND USE THEREOF FOR THE TREATMENT OR PREVENTION OF INFECTION CAUSED BY E. COLI” (Purdue Research Foundation, priority 2023, published 2025).

Experiments:
APEC strain O2:H4 = assay: Antibiogram by micro-broth dilution (MIC); assay type: cell-based, Escherichia coli; conditions: confirmed on sorbitol-MacConkey agar
Method: (§1) As non-pathogenic E. coli are among the bacteria normally present in chickens' gastrointestinal tracts, potential antibiotic resistance selection markers in challenge APEC strains were identified by conducting antibiograms of each APEC strain in the library of APEC strains using a previously described micro-broth dilution method. 90 μL of Brain Heart Infusion broth was aliquoted into each well of 96-well plates. Antibiotics (specifically, kanamycin, gentamycin, neomycin, nalidixic acid, streptomycin, and ampicillin) were added to wells in order to establish an antibiotic concentration gradient spanning across each antibiotic's minimum inhibitory concentration (MIC) as reported by NARMS. […] Following incubation, the lowest concentration of each antibiotic that prevented visible bacterial growth was recorded as the MIC for that antibiotic. MICs were confirmed for each APEC strain by plating each strain on sorbitol-MacConkey agar supplemented with antibiotics at the determined MICs and incubating plates overnight at 37° C. The challenge APEC strain was then selected by incubating samples from chicken ceca on sorbitol-MacConkey agar supplemented with antibiotics at the determined MICs and incubating these samples overnight at 37° C. […]

[1] = tested on: all other bacteria in the cecal samples; assay: Chicken cecal samples on sorbitol-MacConkey agar supplemented with antibiotics; assay type: cell-based; conditions: streptomycin 64 ug/mL and gentamycin 32 ug/mL, overnight 37° C.
Method: as §1

APEC serotype O2:H4 = assay: Lytic capacity of the six-phage treatment compared with antibiotics (OD600); assay type: cell-based, Escherichia coli; conditions: APEC O2:H4, antibiotic at its minimum inhibitory concentration (NARMS), 1-4 hours
Method: The six APEC strains were individually inoculated into LB broth and incubated at 37° C. until they reached log-phase growth. Phages were added to the log-phase culture of their APEC host at an MOI of 10, and subsequent bacterial concentrations were determined by measuring the absorbance (OD600) of the culture at 1, 2, 3, and 4 hours post-phage application. One flask containing only bacterial culture was included as a negative control. Additional flasks containing both bacterial cultures and antibiotics (specifically, gentamycin sulfate, kanamycin sulfate, nalidixic acid, or chloramphenicol) at their respective minimum inhibitory concentrations (National Antibiotic Resistance Monitoring System (NARMS) 2019, antibiotics tested by NARMS) were included as positive controls. These lytic capacity experiments were conducted in triplicate for each of the phage types and their respective host APEC strains.

Compound: [H]/N=C(/N)N[C@H]1[C@H](O)[C@@H](O)[C@H](O[C@@H]2O[C@@H](C)[C@](O)(C=O)[C@H]2O[C@@H]2O[C@@H](CO)[C@H](O)[C@@H](O)[C@@H]2NC)[C@@H](N/C(N)=N\[H])[C@@H]1O [streptomycin]
- antibiotic concentration at which APEC strain O2:H4 is resistant (APEC strain O2:H4): 64 µg/mL
- growth of all other bacteria in the cecal samples [1]: prohibit the growth

Compound: gentamycin
- OD600 readings of antibiotic-treated APEC cultures over time (APEC serotype O2:H4): increased over time
- antibiotic concentration at which APEC strain O2:H4 is resistant (APEC strain O2:H4): 32 µg/mL
- growth of all other bacteria in the cecal samples [1]: prohibit the growth
